The text below walks through data of patent US20100266618A1, “COMPOSITIONS AND METHODS FOR AUGMENTING ACTIVITY OF ONCOLYTIC VIRUSES” (priority 2009, published 2010).

The nature of data set [1]: Maximum tolerable dose (MTD) study. It is filed as in vivo. To be noted: single IP injection, CD-1 nude mice. On the procedure: (§1) Maximum tolerable dose (MTD) and pharmacokinetic (PK) studies in mice: For MTD studies, groups of three CD-1 nude mice (6-8 weeks old) were given a single intraperitoneal (IP) injection of Compound 2 (in log 2 increments, diluted in 10% Tween-80) ranging from […]-1000 mg/Kg. The animals were monitored twice daily for signs of distress, including weight loss, morbidity, and respiratory distress. For PK studies, groups of three CD-1 nude mice (6-8 weeks old) were given a single IP injection of Compound 2 (250 mg/Kg), and blood was taken from the saphenous vein at the indicated timepoints. The blood was centrifuged at 3,000 rpm for 10 min, and plasma collected and frozen (−80 deg C.). Plasma samples were analyzed for Compound 2 using LC-MS. To 10 μL plasma, 20 μL acetonitrile was added, vortexed briefly and centrifuged at 14,000 rpm for 10 min. The clear supernatant was transferred in to a vial for LC-MS analysis. Chromatographic separations were carried out on an Acquity UPLC BEH C18 (2.1×50 mm, […]) column using ACQUITY UPLC system. The mobile phase was 0.1% formic acid in water (solvent A) and 0.1% formic acid in acetonitrile (solvent B). A gradient starting at 95% solvent A going to 5% in 4.5 min, holding for 0.5 min, going back to 95% in 0.5 min and equilibrating the column for 1 min was employed. […]

Data set [2] is described as follows: Pharmacokinetic (PK) study, plasma LC-MS. Conditions: CD-1 nude mice. It is filed as in vivo. On the procedure: as §1
The subject of the next data set is OVCAR-4 xenograft. Nature of the data set: Ovarian xenograft model, bioluminescent imaging. The class given is in vivo, CD-1 nude mice. The method, then:
Ovarian xenograft model: Human ovarian carcinoma-derived OVCAR-4 cells, adapted for bioluminescent imaging, were injected into 6-8 week old athymic CD-1 nude mice (IP injection, 5×10^6 cells per mouse). Untreated animals develop measurable abdominal tumours (assessed by IVIS imaging) by 4-7 days, become icteric by 3-4 months and must be euthanized shortly thereafter due to systemic disease as characterized by enlarged cancerous liver and spleen, pale kidneys, and cancerous lymph nodes on the abdominal mesentery. For efficacy experiments, Compound 2 (250 mg/kg; or vehicle (10% Tween-80)) was administered twice daily (IP injections), beginning on day 14 and ending on day 19. Maraba-DM (1×10^5 pfu per cell) or PBS was injected IV (tail vein) on day 16, 17, 19, 23, 25, 27. Animals were monitored daily for weight loss, morbidity, hind leg paralysis and respiratory distress. Tumour images were captured twice weekly with a Xenogen 200 IVIS system (Caliper LS, USA), and total luminescent flux was analyzed on computerized software (Xenogen).

A further data set deals with EMT6 tumours. Nature of the data set: EMT6 syngeneic breast cancer model, bioluminescent imaging and survival. The class given is in vivo, Balb/c mice. The method, then:
EMT6 syngeneic breast cancer models: Murine EMT6 breast cancer-derived cells (1×10^5 per mouse) were adapted for bioluminescent imaging and injected into the fat pad of the right lower breast in 6-8 week old Balb/c mice. Mice developed palpable tumours by 5-7 days, which grew rapidly. At 7 days post-tumour implants, mice were treated with Compound 2 (250 mg/kg, IP) or vehicle, twice daily, for six days. Maraba-DM (1×10^7 pfu per cell) or PBS was injected IV (tail vein) on day 10, 11, 13, 16, and 17. Animals were monitored daily for piloerection, weight loss, morbidity, hind leg paralysis and respiratory distress. Tumour images were captured twice weekly using a Xenogen 200 IVIS system (Caliper LS, USA), and total luminescent flux was analyzed on computerized software (Xenogen). Mice were euthanized when the total flux exceeded 1×10^7, which corresponded to a tumour burden of ˜500 mm^3 and occurred between 14-17 days in untreated animals.

A further data set concerns EMT6 breast cancer line. The data set is described as follows: In vitro cytotoxicity assay with small molecule followed by Maraba virus infection. To be noted: 50 uM for 48 h prior to Maraba virus infection.
The next data set concerns U373 and OVCAR8 cells. It is filed as cell-based, human.

Protocol for EMT6 breast cancer line: In vitro cytotoxicity assays with small molecules: Cells were seeded onto 96 well plates to a confluence of ˜50%. The following day, siRNA transfections were performed, or small-molecule IRE1α inhibition was initiated. For the small-molecules, DMSO was used as a vehicle with a [drug]=20-50 μM. Drug treatment occurred for either 4 h (“acute” treatment), or was re-applied at 24 h and left for 48 h total (“chronic” treatment). Following knockdown or chemical inhibition, the cells were infected at log dilutions with the indicated rhabdoviruses. After 48-72 h of infection (depending on the cell line), Resazurin sodium salt was added to a final concentration of 20 μg/ml. After a 6 h incubation the absorbance was read at a wavelength of 573 nm.

Usually half-life stands for the time in which the quantity being followed falls by half. Read a low half-life as rapid decline. For `COc1cc(-c2cccc(C(N)=O)c2)cc(C=O)c1O` [Compound 2, 3′-formyl-4′-hydroxy-5′-methoxy-[1,1′-biphenyl]-3-carboxamide], the tolerated single dose entry in data set [1] is reported as “up to 1000 mg/Kg”. Moreover, the bio-distribution result in data set [2] was “efficient bio-distribution to the extravascular tissues”. For the same compound, the half-life in data set [2] (mouse, plasma, intraperitoneal, 250 mg/Kg) was > 6 h. Moreover, the “duration of reduced tumour burden” value in the data set with OVCAR-4 xenograft (combination with Maraba-DM) is on record as > 30 days. In addition, the tumour burden result is given as “dramatically reduced tumour burden” in the data set on OVCAR-4 xenograft (combination with Maraba-DM, Compound 2 250 mg/kg IP twice daily) and “significantly reduced tumour burden” with EMT6 tumours (combination with Maraba virus, 250 mg/Kg IP twice daily for 6 days). Besides, the tumour growth entry in the data set on OVCAR-4 xenograft (single agent) is “rapid re-growth occurred after an early period of tumour regression”; with EMT6 tumours (single agent), “neither drug nor virus had an appreciable effect on tumour growth”. The “tumour growth after drug treatment was stopped” value with EMT6 tumours (combination, virus dosing continued) is “tumour re-growth occurred even in the presence of continued virus dosing”. The “efficacy (survival) with extended treatment” value in the data set on EMT6 tumours (treatment extended to more than 12 days in combination with virus) was “continued to increase efficacy”. Also, the “sensitization to oncolytic virus killing” value in the data set on EMT6 breast cancer line was “significantly sensitized to oncolytic virus killing”.

In the case of tunicamycin [reference compound], the eIF2alpha phosphorylation entry in the data set with U373 and OVCAR8 cells is “inducing elF2alpha phosphorylation”.
